Tests used:
[1] = target: T1, von Hippel-Lindau disease tumor suppressor/Bromodomain-containing protein 4 (Homo sapiens, UniProt O60885+P40337); assay: Protac activity at VHL E3 ligase/BRD4 in HEK293 cells assessed as BRD4 degradation by HiBiT assay; format: cell-based
[2] = target: T1, von Hippel-Lindau disease tumor suppressor/Bromodomain-containing protein 4; assay: Protac activity at VHL E3 ligase/BRD4 in HEK293 cells assessed as degradation maximum by HiBiT assay relative to control; format: cell-based

T1 sequence (P40337 whole entry, looked up, other chains not shown): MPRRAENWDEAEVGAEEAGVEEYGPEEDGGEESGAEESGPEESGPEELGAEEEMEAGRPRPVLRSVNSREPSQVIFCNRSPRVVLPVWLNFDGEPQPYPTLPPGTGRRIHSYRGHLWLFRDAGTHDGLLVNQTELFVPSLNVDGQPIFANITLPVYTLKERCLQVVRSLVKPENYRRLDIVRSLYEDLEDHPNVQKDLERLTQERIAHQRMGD

Row | Structure (SMILES) | pDC50 [1] | Emax [2] [%]
1 | Cc1sc2c(c1C)C(c1ccc(Cl)cc1)=N[C@@H](CC(=O)N1CCC3(CCN(CC4CCN(c5ccc6c(c5)CN(C5CCC(=O)NC5=O)C6=O)CC4)CC3)CC1)c1nnc(C)n1-2 (stereo in doubt; 3P) | 9.1 | 
2 | Cc1sc2c(c1C)C(c1ccc(Cl)cc1)=N[C@@H](CC(=O)N1CCN(CCC3CCN(c4ccc5c(c4)CN(C4CCC(=O)NC4=O)C5=O)CC3)CC1)c1nnc(C)n1-2 (stereo in doubt; 6P) [listing 1 of 2 here] | 9.4 | 
3 | Cc1sc2c(c1C)C(c1ccc(Cl)cc1)=N[C@@H](CC(=O)N1CCC3(CCN(CC4CCN(c5ccc6c(c5)CN(C5CCC(=O)NC5=O)C6=O)CC4)CC3)CC1)c1nnc(C)n1-2 (stereo in doubt) | 9.2 | 
4 | Cc1sc2c(c1C)C(c1ccc(Cl)cc1)=N[C@@H](CC(=O)N1CCN(CC#Cc3ccc4c(c3)CN(C3CCC(=O)NC3=O)C4=O)CC1)c1nnc(C)n1-2 (stereo in doubt; 4P) [listing 1 of 2 here] | 8.5 | 
5 | Cc1sc2c(c1C)C(c1ccc(Cl)cc1)=N[C@@H](CC(=O)N1CCN(CCC3CCN(c4ccc5c(c4)CN(C4CCC(=O)NC4=O)C5=O)CC3)CC1)c1nnc(C)n1-2 (stereo in doubt) [listing 1 of 2 here] |  | 99
6 | Cc1sc2c(c1C)C(c1ccc(Cl)cc1)=N[C@@H](CC(=O)N1CCN(CCC3CCN(c4ccc5c(c4)CN(C4CCC(=O)NC4=O)C5=O)CC3)CC1)c1nnc(C)n1-2 (stereo in doubt; 6P) [listing 2 of 2 here] |  | 79
7 | Cc1sc2c(c1C)C(c1ccc(Cl)cc1)=N[C@@H](CC(=O)NCCCCCC(=O)N1CCN(CCCC3CCN(c4ccc5c(c4)CN(C4CCC(=O)NC4=O)C5=O)CC3)CC1)c1nnc(C)n1-2 (stereo in doubt; 10P) [listing 1 of 2 here] | 9.8 | 
8 | Cc1sc2c(c1C)C(c1ccc(Cl)cc1)=N[C@@H](CC(=O)N1CCC3(CC1)CCN(c1ccc4c(c1)CN(C1CCC(=O)NC1=O)C4=O)CC3)c1nnc(C)n1-2 (stereo in doubt; 5P) | 8.6 | 
9 | Cc1ncsc1-c1ccc(CNC(=O)[C@@H]2C[C@@H](O)CN2C(=O)[C@@H](NC(=O)CCCCCCNC(=O)C[C@@H]2N=C(c3ccc(Cl)cc3)c3c(sc(C)c3C)-n3c(C)nnc32)C(C)(C)C)cc1 (stereo in doubt; 7P) [listing 1 of 2 here] |  | 94
10 | Cc1sc2c(c1C)C(c1ccc(Cl)cc1)=N[C@@H](CC(=O)N1CCN(CC#Cc3ccc4c(c3)CN(C3CCC(=O)NC3=O)C4=O)CC1)c1nnc(C)n1-2 (stereo in doubt; 4P) [listing 2 of 2 here] |  | 91
11 | Cc1ncsc1-c1ccc(CNC(=O)[C@@H]2C[C@@H](O)CN2C(=O)[C@@H](NC(=O)CN2CCN(C(=O)CCCCCNC(=O)C[C@@H]3N=C(c4ccc(Cl)cc4)c4c(sc(C)c4C)-n4c(C)nnc43)CC2)C(C)(C)C)cc1 (stereo in doubt; 8P) | 6.2 | 
12 | Cc1sc2c(c1C)C(c1ccc(Cl)cc1)=N[C@@H](CC(=O)N1CCC(CCN3CCC4(CC3)CCN(c3ccc5c(c3)CN(C3CCC(=O)NC3=O)C5=O)CC4)CC1)c1nnc(C)n1-2 (stereo in doubt; 2P) | 9.2 | 
13 | Cc1sc2c(c1C)C(c1ccc(Cl)cc1)=N[C@@H](CC(=O)N1CCN(CC3CCN(c4ccc5c(c4)CN(C4CCC(=O)NC4=O)C5=O)CC3)CC1)c1nnc(C)n1-2 (stereo in doubt) [listing 1 of 2 here] | 9.1 | 
14 | Cc1sc2c(c1C)C(c1ccc(Cl)cc1)=N[C@@H](CC(=O)NCCCCCC(=O)NCCCC#Cc1cccc3c1CN(C1CCC(=O)NC1=O)C3=O)c1nnc(C)n1-2 (stereo in doubt) [listing 1 of 2 here] |  | 93
15 | Cc1sc2c(c1C)C(c1ccc(Cl)cc1)=N[C@@H](CC(=O)NCCCCCC(=O)N1CCN(CCCC3CCN(c4ccc5c(c4)CN(C4CCC(=O)NC4=O)C5=O)CC3)CC1)c1nnc(C)n1-2 (stereo in doubt) [listing 1 of 2 here] | 9.3 | 
16 | Cc1sc2c(c1C)C(c1ccc(Cl)cc1)=N[C@@H](CC(=O)N1CCN(CC3CCN(c4ccc5c(c4)CN(C4CCC(=O)NC4=O)C5=O)CC3)CC1)c1nnc(C)n1-2 (stereo in doubt) [listing 2 of 2 here] |  | 100

Row | Structure (SMILES) | pDC50 [1] | Emax [2] [%]
17 | Cc1sc2c(c1C)C(c1ccc(Cl)cc1)=N[C@@H](CC(=O)N1CCN(CCCC3CCN(c4ccc5c(c4)CN(C4CCC(=O)NC4=O)C5=O)CC3)CC1)c1nnc(C)n1-2 (stereo in doubt) | 8.8 | 
18 | Cc1sc2c(c1C)C(c1ccc(Cl)cc1)=N[C@@H](CC(=O)NCCCCCC(=O)NCCCC#Cc1cccc3c1CN(C1CCC(=O)NC1=O)C3=O)c1nnc(C)n1-2 (stereo in doubt; 9P) [listing 1 of 2 here] | 7.4 | 
19 | Cc1sc2c(c1C)C(c1ccc(Cl)cc1)=N[C@@H](CC(=O)NCCCCCC(=O)N1CCN(CCCC3CCN(c4ccc5c(c4)CN(C4CCC(=O)NC4=O)C5=O)CC3)CC1)c1nnc(C)n1-2 (stereo in doubt; 10P) [listing 2 of 2 here] |  | 99
20 | Cc1sc2c(c1C)C(c1ccc(Cl)cc1)=N[C@@H](CC(=O)N1CCN(CC3CCN(c4ccc5c(c4)CN(C4CCC(=O)NC4=O)C5=O)CC3)CC1)c1nnc(C)n1-2 (stereo in doubt; 1P) | 9.7 | 
21 | Cc1ncsc1-c1ccc(CNC(=O)[C@@H]2C[C@@H](O)CN2C(=O)[C@@H](NC(=O)CN2CCN(C(=O)CCCCCNC(=O)C[C@@H]3N=C(c4ccc(Cl)cc4)c4c(sc(C)c4C)-n4c(C)nnc43)CC2)C(C)(C)C)cc1 (stereo in doubt) | 6.3 | 
22 | Cc1sc2c(c1C)C(c1ccc(Cl)cc1)=N[C@@H](CC(=O)NCCCCCC(=O)N1CCN(CCCC3CCN(c4ccc5c(c4)CN(C4CCC(=O)NC4=O)C5=O)CC3)CC1)c1nnc(C)n1-2 (stereo in doubt) [listing 2 of 2 here] |  | 100
23 | Cc1sc2c(c1C)C(c1ccc(Cl)cc1)=N[C@@H](CC(=O)N1CCC3(CC1)CCN(c1ccc4c(c1)CN(C1CCC(=O)NC1=O)C4=O)CC3)c1nnc(C)n1-2 (stereo in doubt) [listing 1 of 2 here] |  | 100
24 | Cc1sc2c(c1C)C(c1ccc(Cl)cc1)=N[C@@H](CC(=O)NCCCCCC(=O)NCCCC#Cc1cccc3c1CN(C1CCC(=O)NC1=O)C3=O)c1nnc(C)n1-2 (stereo in doubt; 9P) [listing 2 of 2 here] |  | 83
25 | Cc1sc2c(c1C)C(c1ccc(Cl)cc1)=N[C@@H](CC(=O)N1CCN(CCCC3CCN(c4ccc5c(c4)CN(C4CCC(=O)NC4=O)C5=O)CC3)CC1)c1nnc(C)n1-2 (stereo in doubt; 11P) | 9.7 | 
26 | Cc1sc2c(c1C)C(c1ccc(Cl)cc1)=N[C@@H](CC(=O)N1CCN(CCC3CCN(c4ccc5c(c4)CN(C4CCC(=O)NC4=O)C5=O)CC3)CC1)c1nnc(C)n1-2 (stereo in doubt) [listing 2 of 2 here] | 8.8 | 
27 | Cc1sc2c(c1C)C(c1ccc(Cl)cc1)=N[C@@H](CC(=O)NCCCCCC(=O)NCCCC#Cc1cccc3c1CN(C1CCC(=O)NC1=O)C3=O)c1nnc(C)n1-2 (stereo in doubt) [listing 2 of 2 here] | 7.3 | 
28 | Cc1sc2c(c1C)C(c1ccc(Cl)cc1)=N[C@@H](CC(=O)N1CCN(CC#Cc3ccc4c(c3)CN(C3CCC(=O)NC3=O)C4=O)CC1)c1nnc(C)n1-2 (stereo in doubt) | 8 | 
29 | Cc1sc2c(c1C)C(c1ccc(Cl)cc1)=N[C@@H](CC(=O)N1CCC3(CC1)CCN(c1ccc4c(c1)CN(C1CCC(=O)NC1=O)C4=O)CC3)c1nnc(C)n1-2 (stereo in doubt) [listing 2 of 2 here] | 8.8 | 
30 | Cc1sc2c(c1C)C(c1ccc(Cl)cc1)=N[C@@H](CC(=O)N1CCC(CCN3CCC4(CC3)CCN(c3ccc5c(c3)CN(C3CCC(=O)NC3=O)C5=O)CC4)CC1)c1nnc(C)n1-2 (stereo in doubt) | 9 | 
31 | Cc1ncsc1-c1ccc(CNC(=O)[C@@H]2C[C@@H](O)CN2C(=O)[C@@H](NC(=O)CCCCCCNC(=O)C[C@@H]2N=C(c3ccc(Cl)cc3)c3c(sc(C)c3C)-n3c(C)nnc32)C(C)(C)C)cc1 (stereo in doubt) | 6.9 | 
32 | Cc1ncsc1-c1ccc(CNC(=O)[C@@H]2C[C@@H](O)CN2C(=O)[C@@H](NC(=O)CCCCCCNC(=O)C[C@@H]2N=C(c3ccc(Cl)cc3)c3c(sc(C)c3C)-n3c(C)nnc32)C(C)(C)C)cc1 (stereo in doubt; 7P) [listing 2 of 2 here] | 6.8 | 

From ChEMBL document CHEMBL5390310, “Rapid PROTAC Discovery Platform: Nanomole-Scale Array Synthesis and Direct Screening of Reaction Mixtures” (ACS Med Chem Lett, 2023)
